According to patent publication US9005902B2, “Tuberculosis diagnostic test” (priority 1998, dated 2015):

Key:
[1] = tested on: ESAT-6 peptide-specific IFN-γ-secreting T cells from peripheral blood; format: cell-based, human; details: for % of TB patients responding to individual peptide: peptide 10 μg/ml, 3×10^5 PBMC/well, positive = at least 5 IFN-γ SFCs more than and at least twice negative control
[2] = tested on: HLA DR1; experiment: Peptide binding to HLA DR1
[3] = tested on: HLA DR7; experiment: Peptide binding to HLA DR7

Sequence | % of TB patients responding to individual peptide [1] [%] | further results
WNFAGIEAAASAIQG [ES2] | 40 | 
MTEQQWNFAGIEAAA (listed as Mycobacterium tuberculosis) [ES1, 15-mer peptide from ESAT-6 of M. tuberculosis] | 57 | % of healthy contacts tested recognising the peptide ([1]; healthy contacts exposed to open pulmonary tuberculosis): 68%; Number of contacts testing positive ([1]; out of 22 contacts with prolonged exposure to smear positive index case, Heaf test grade 3 or 4): 15; Binding to HLA DR1 [2]: binds; Binding to HLA DR7 [3]: binds
EGKQSLTKLAAAWGG (listed as Mycobacterium tuberculosis) [ES7, 15-mer peptide from ESAT-6 of M. tuberculosis] | 15 | 
SAIQGNVTSIHSLLD (listed as Mycobacterium tuberculosis) [ES4, 15-mer peptide from ESAT-6 of M. tuberculosis] | 23 | 
YQGVQQKWDATATEL [ES11] | 34 | 
NNALQNLARTISEAG [ES14] | 28 | Detection of ESAT-6-specific CD8 T cells ([1]; peptide contains CD8 epitopes): detected
NLARTISEAGQAMAS [ES15] | 34 | 
QKWDATATELNNALQ (listed as Mycobacterium tuberculosis) [ES12, 15-mer peptide from ESAT-6 of M. tuberculosis] | 25 | 
